This note sets out measurements from patent publication US10925884B2, “Methods of diagnosing and treating hepatocellular carcinoma” (MacKay Memorial Hospital, priority 2017, dated 2021).

Structures are written as SMILES.

The subject of test [1] is phosphorylated MEKK1 (p-MEKK1). Briefly: Western blot analysis of p-MEKK1 in Mahlavu cells. Type of test: cell-based, Human. Particulars: Mahlavu cells after trilostane treatment, FIG. 3. The procedure:
(§1) Total cellular proteins were extracted, quantified, and subject to gel electrophoresis. Whole-cell lysates were isolated from Mahlavu cells. Equal amounts of proteins (40 μg/lane) were electrophoresed in 10% sodium dodecyl sulfatepolyacrylamide gel. The transferred membrane was blocked with 5% defatted milk and immunoblotted with primary antibodies against various proteins, including ERK (total form), p-ERK, p-AKT, E-cadherin, N-cadherin, Snail1, Twist, Vimentin, MLC II (total form), p-MLC II, ROCK, and GAPDH at room temperature for 3 hours. The antigen-antibody complexes were visualized with by chemiluminescence with the Amersham ECL detection system (GE Healthcare, Piscataway, N.J.).
In general terms: A western blot detects proteins with antibodies after separation by electrophoresis.

Test [2] deals with phosphorylated ERK (p-ERK). In words: Western blot analysis of p-ERK in Mahlavu cells. It is filed as cell-based, Human. Particulars: Mahlavu cells after trilostane treatment, FIG. 3. On the procedure: as §1
The subject of test [3] is Mahlavu cells. In words: Colony forming assay, Mahlavu cells. Conditions: various dosage of trilostane, 10 to 13 days, FIG. 2A. Type of test: cell-based, Human. On the procedure: (§2) Human HCC cancer cell lines (including Mahlavu, Hep3B, and Huh7) were cultured in Dulbecco's modified Eagle medium (DMEM), supplemented with 10% (v/v) fetal bovine serum and antibiotics (100 units/mL penicillin, 100 μg/mL streptomycin, and 2.5 μg/mL amphotericin B). All cell lines have been periodically authenticated by short tandem repeat analysis at Bioresource Collection and Research Center, Hsinchu, Taiwan (R.O.C.) and tested for being mycoplasma free. Trilostane was purchased from LKT Laboratories, St. Paul, Minn. A total of 500 Mahlavu or Hep3B HCC cancer cells were seeded into 6-well plate and treated with various dosage of trilostane. The medium was replaced every 3 days. After 10 to 13 days, colonies were stained with 3% crystal violet and examined by microscopy. Colonies containing at least 50 individual cells were counted.

Test [4] relates to Mahlavu cells. In words: Wound healing assay, Mahlavu cells. Type of test: cell-based, Human. Conditions: 24 hours, FIG. 2C. The procedure: (§3) Human HCC cancer cell lines (including Mahlavu, Hep3B, and Huh7) were cultured in Dulbecco's modified Eagle medium (DMEM), supplemented with 10% (v/v) fetal bovine serum and antibiotics (100 units/mL penicillin, 100 μg/mL streptomycin, and 2.5 μg/mL amphotericin B). All cell lines have been periodically authenticated by short tandem repeat analysis at Bioresource Collection and Research Center, Hsinchu, Taiwan (R.O.C.) and tested for being mycoplasma free. Trilostane was purchased from LKT Laboratories, St. Paul, Minn. Mahlavu and Hep3B cells (2×10^5 cells/well) were seeded into 6-well plates and grown to confluence overnight. A wound was made by scraping with a sterilized 200-μL pipette tip in the middle of the cell monolayer, and the cells were allowed to migrate to the denuded area for 24 hours. The percentage of wound closure was measured using Olympus IX71 light microscope (Olympus, Tokyo, Japan).

Test [5] relates to Hep3B cells. In words: Wound healing assay, Hep3B cells. It is filed as cell-based, Human. Conditions: 24 hours, FIG. 2D. On the procedure:
as §3

The next test deals with mahlave cells. Briefly: Transwell migration assay. It is filed as cell-based, Human. Conditions: FIG. 2E.
Test [6] has as its system Hep3B cells. Briefly: Colony forming assay, Hep3B cells. It is filed as cell-based, Human. Particulars: various dosage of trilostane, 10 to 13 days, FIG. 2B. The procedure:
as §2

Test [7] deals with Mahlavu cells. In words: In vivo xenograft model of HCC. Particulars: Mahlavu xenograft in BALB/c nude mice, 30 or 60 mg/kg intraperitoneally every day for 18 days; FIG. 4. On the procedure: All animal experiments were approved by the Institutional Animal Care and Use Committee of MacKay Memorial Hospital (Taiwan, R.O.C.). 6-week-old male BALB/c nude mice were injected subcutaneously with 1.0×10^7 Mahlavu cells into the bilateral back pad. When the tumor growth reached 50 mm^3, mice were randomly divided into three groups (n=5 mice each group): (1) low-dose group, in which 30 mg/kg of trilostane was intraperitoneally administered to the mouse every day for 18 days; (2) high-dose group, in which 60 mg/kg of trilostane was intraperitoneally administered to the mouse every day for 18 days; and (3) control group, in which vehicle control (Dimethyl sulfoxide, DMSO) of the same volume was intraperitoneally administered to the mouse every day for 18 days. The tumor volume was measured twice a week by the same investigator, and mice were sacrificed when tumors reached 10% of body weight.

On to `C[C@]12CC[C@H]3[C@@H](CC[C@@]45O[C@@H]4C(O)=C(C#N)C[C@]35C)[C@@H]1CC[C@@H]2O` [trilostane], for which the “expression of phosphorylated MEKK1 (p-MEKK1)” value in test [1] is given as “down-regulated”. For the same compound, the “expression of phosphorylated ERK (p-ERK)” value in test [2] is on record as “down-regulated”. Further, the colony numbers entry with Mahlavu cells [3] and in the test with Hep3B cells [6] was “decreased colony numbers” each time. The wound closure result in the test with Mahlavu cells [4] and in the test with Hep3B cells [5] was “significantly inhibited the wound closure” each time. The cell migration entry in the test with mahlave cells is on record as “inhibitory effect”. Also, the tumor growth rate entry in the test with Mahlavu cells [7] is given as “significantly suppressed”.
